# Test results reported in patent US5773444A, “Quinazolines as inhibitors of endothelin converting enzyme” (Warner-Lambert Company, priority 1997, dated 1998).
# Structures can show the parent of a compound that is named as a salt.
# Target: T1, endothelin converting enzyme (ECE) (Homo sapiens, UniProt P42892)
# T1 construct: ECE was partially purified from EA.hy926 grown in 150 roller; endogenous in cells; host or cells: EA.hy926 (human umbilical vein endothelial cells fused with A549); detergent-solubilised membranes, RCA-I lectin eluate
# Experiment: ECE assay (partially purified ECE from EA.hy926, ET-1 production by RIA)
# Assay type: biochemical
# Conditions: not given
# T1 sequence (P42892 whole entry, the tested form may be a part): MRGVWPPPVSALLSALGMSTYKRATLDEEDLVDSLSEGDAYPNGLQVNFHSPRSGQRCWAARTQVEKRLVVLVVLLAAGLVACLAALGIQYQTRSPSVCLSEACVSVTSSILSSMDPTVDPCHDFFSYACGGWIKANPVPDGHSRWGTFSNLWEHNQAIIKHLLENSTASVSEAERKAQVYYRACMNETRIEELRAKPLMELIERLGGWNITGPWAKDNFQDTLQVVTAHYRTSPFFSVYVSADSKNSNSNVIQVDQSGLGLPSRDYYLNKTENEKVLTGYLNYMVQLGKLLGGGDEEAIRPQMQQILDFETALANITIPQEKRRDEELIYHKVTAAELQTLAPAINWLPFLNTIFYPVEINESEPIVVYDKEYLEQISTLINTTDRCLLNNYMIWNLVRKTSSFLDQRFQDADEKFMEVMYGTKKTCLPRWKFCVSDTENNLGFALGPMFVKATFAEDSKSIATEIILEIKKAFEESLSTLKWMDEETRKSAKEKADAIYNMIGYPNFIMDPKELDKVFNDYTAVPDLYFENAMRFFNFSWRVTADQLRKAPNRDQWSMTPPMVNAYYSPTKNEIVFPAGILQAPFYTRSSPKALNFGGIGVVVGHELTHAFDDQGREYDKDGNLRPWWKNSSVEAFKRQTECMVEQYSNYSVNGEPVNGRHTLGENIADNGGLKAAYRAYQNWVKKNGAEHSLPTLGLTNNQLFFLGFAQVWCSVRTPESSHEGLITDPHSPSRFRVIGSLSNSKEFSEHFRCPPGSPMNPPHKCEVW
row,Compound,inhibition of the enzyme (in words)
1,O=C(O)CN(CCN(CC(=O)O)CC(=O)O)CC(=O)O [EDTA],inhibited

# Same assay, conditions: 10 μM big ET-1, pH 7.0, 1.5 hours at 37° C., 3% DMSO; read-out: IC50 (Table III, Biological Activity of Compounds of the Present Invention)
row,Compound,IC50
1,"CCN1CCCC(Nc2nc(-c3ccccc3)nc3ccc(I)cc23)C1 (stereo not drawn) [Example 2, (1-Ethyl-piperidin-3-yl)-(6-iodo-2-phenyl-quinazolin-4-yl)-amine]",9.2 ± 0.8 µM
2,"CCN1CCCC(Nc2nc(C(Cl)(Cl)Cl)nc3ccc([N+](=O)[O-])cc23)C1 (stereo not drawn) [Example 4, (1-Ethyl-piperidin-3-yl)-(6-nitro-2-trichloromethyl-quinazolin-4-yl)-amine]",29.1 ± 5.4 µM
3,"CCN1CCCC(Nc2nc(C(C)(C)C)nc3ccc(I)cc23)C1 (stereo not drawn) [Example 5, (2-tert-Butyl-6-iodo-quinazolin-4-yl)-(1-ethyl-piperidin-3-yl)-amine]",17.6 ± 1.7 µM
4,"NCCNc1nc(C(Cl)(Cl)Cl)nc2ccc(I)cc12 [Example 6, N-(6-Iodo-2-trichloromethyl-quinazolin-4-yl)-ethane-1,2-diamine hydrochloride]",29.6 ± 6 µM
5,"CNCCNc1nc(C(Cl)(Cl)Cl)nc2ccc(I)cc12 [Example 7, N-(6-Iodo-2-trichloromethyl-quinazolin-4-yl)-N^1-methyl-ethane-1,2-diamine]",22.1 ± 4.8 µM
6,"CN(C)CCNc1nc(C(Cl)(Cl)Cl)nc2ccc(I)cc12 [Example 8, N-(6-Iodo-2-trichloromethyl-quinazolin-4-yl)-N^1,N^1-dimethyl-ethane-1,2-diamine]",11.1 ± 2.7 µM
7,ClC(Cl)(Cl)c1nc(NCCN2CCCCC2)c2cc(I)ccc2n1 [Example 9],3.7 ± 1.6 µM
8,"ClC(Cl)(Cl)c1nc(NCCN2CCOCC2)c2cc(I)ccc2n1 [Example 10, (6-Iodo-2-trichloromethyl-quinazolin-4-yl)-(2-morpholin-4-yl-ethyl)-amine]",25.4 ± 4.2 µM
9,"CCN1CCCC1CNc1nc(C(Cl)(Cl)Cl)nc2ccc(I)cc12 (stereo not drawn) [Example 11, (1-Ethyl-pyrrolidin-2-yl-methyl)-(6-iodo-2-trichloromethyl-quinazolin-4-yl)-amine]",12.4 ± 1 µM
10,"ClC(Cl)(Cl)c1nc(NC2CN3CCC2CC3)c2cc(I)ccc2n1 (stereo not drawn) [Example 12, (1 -Aza-bicyclo[2,2,2,]oct-3-yl)-(6-iodo-2-trichloromethyl-quinazolin-4-yl)-amine]",11.1 ± 1.7 µM
11,"CC(C)N(CCNc1nc(C(Cl)(Cl)Cl)nc2cc(Cl)ccc12)C(C)C [Example 13, N-(7-Chloro-2-trichloromethyl-quinazolin-4-yl)-N',N'-diisopropyl-ethane-1,2-diamine]",66.6 ± 11.8 µM
12,"O=C(O)CN1CCCC(Nc2nc(C(Cl)(Cl)Cl)nc3ccc(I)cc23)C1 (stereo not drawn) [Example 14, [3-(6-Iodo-2-trichloromethyl-quinazolin-4-yl-amino)-piperidin-1-yl]-acetic acid potassium salt]",75.5 ± 11.6 µM
13,"CN(C)CC(CN(C)C)Nc1nc(C(Cl)(Cl)Cl)nc2ccc(I)cc12 [Example 16, N'-(6-Iodo-2-trichloromethyl-quinazolin-4-yl)-N,N,N"",N""-tetramethyl-propane-1,2,3-triamine monohydrochloride]",8.4 ± 1.4 µM
14,"CCN1CCCC(Nc2nc(C(F)(F)F)nc3ccc(I)cc23)C1 (stereo not drawn) [Example 17, (1-Ethyl-piperidin-3-yl)-(6-iodo-2-trifluoromethyl-quinazolin-4-yl)-amine]",2.3 ± 0.3 µM

# Same assay, conditions: partially purified ECE from EA.hy926
row,Compound,inhibition of the enzyme (in words)
1,"c1cnc2c(c1)ccc1cccnc12 [1,10-phenanthroline]",inhibited
2,O=C(O)CN(CCOCCOCCN(CC(=O)O)CC(=O)O)CC(=O)O [EGTA],inhibited
3,CC(C)C[C@H](NC(=O)[C@H]1O[C@@H]1C(=O)O)C(=O)NCCCCN=C(N)N [Example E-64],not inhibited
4,CC(C)C[C@H](NC(=O)[C@@H](O)[C@H](N)Cc1ccccc1)C(=O)O [bestatin],not inhibited
5,C[C@H](CS)C(=O)N1CCC[C@H]1C(=O)O [captopril],not inhibited
6,C[C@H](N[C@@H](CCc1ccccc1)C(=O)O)C(=O)N1CCC[C@H]1C(=O)O [enalaprilat],not inhibited
